The source of these data is PubChem BioAssay (NCI).

Among the test systems are NCI-H460 lung; RPMI-8226 leukemia; RXF 393 renal; SF-268 CNS; SF-295 CNS; SF-539 CNS; SN12C renal; U251 CNS; SNB-75 CNS; SK-MEL-5 melanoma.
Assay in all cases: inhibition of tumour cell growth, NCI panel, 48 h

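Each compound was tested at five concentrations against cells in 96-well plates for 48 hours. The concentration for 50% growth inhibition is given as GI50. The concentration for full growth arrest is given as TGI.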 A value given as a limit tells only on which side of the number the result lay.

`Cc1cc(Br)cc(C)c1NC(=O)C(=O)C(C(=O)c1ccc(Cl)c(Cl)c1)C1OC(=O)c2ccccc21` (configuration not stated): the TGI in the assay on NCI-H460 lung, with RPMI-8226 leukemia, in the assay on RXF 393 renal, in the assay with SF-268 CNS, in the assay on SF-295 CNS and with SF-539 CNS was greater than 100 µM in each case. Further, the TGI in the assay on SN12C renal and with U251 CNS was greater than 100 µM each time.
Consider `COc1ccc(-c2nc(N)nc(-c3cc(C)ccc3O)c2Cl)cc1`, for which the TGI is greater than 100 µM with NCI-H460 lung; greater than 100 µM in the assay with RPMI-8226 leukemia; 99.7 µM with RXF 393 renal; greater than 100 µM with SF-268 CNS; greater than 100 µM in the assay on SF-295 CNS; greater than 100 µM with SF-539 CNS. For the same compound, the TGI is greater than 100 µM with SN12C renal, 63.9 µM in the assay on SNB-75 CNS and greater than 100 µM in the assay on U251 CNS.
Turning to `Fc1cc(Nc2ccc3c(OCCCN4CCOCC4)cccc3n2)ccc1Cl`, the GI50 with RPMI-8226 leukemia was 2.64 µM; in the assay with RXF 393 renal it was 2.16 µM; with SF-268 CNS, 3.13 µM; in the assay with SF-295 CNS, 1.97 µM; in the assay on SF-539 CNS it was 1.95 µM; with SK-MEL-5 melanoma it was 2.1 µM. For the same compound, the GI50 is 4.36 µM in the assay with SN12C renal, 1.86 µM with SNB-75 CNS and 1.85 µM in the assay with U251 CNS. Moreover, the TGI with RPMI-8226 leukemia came to 6.97 µM; with RXF 393 renal, 4.74 µM; in the assay on SF-268 CNS, 17 µM; with SF-295 CNS it was 3.96 µM; with SF-539 CNS it was 4.01 µM; with SK-MEL-5 melanoma, 4.39 µM. Further, the TGI in the assay with SN12C renal was found to be 19.3 µM; in the assay with SNB-75 CNS, 6.2 µM; in the assay on U251 CNS, 3.75 µM.
Turning to `CN(C)c1ccc(/C=N/Nc2ccc(-c3nc4ccccc4[nH]3)cc2)cc1`, the GI50 with NCI-H460 lung was 9.33 µM; in the assay with RPMI-8226 leukemia it was 4.6 µM; in the assay with SF-268 CNS, 7.36 µM; in the assay with SF-295 CNS it was 3.19 µM; in the assay with SK-MEL-5 melanoma it was 2.03 µM; in the assay on SN12C renal, greater than 50 µM. The GI50 in the assay on U251 CNS was 6.3 µM. Also, the TGI is 20.4 µM in the assay on NCI-H460 lung; greater than 50 µM with RPMI-8226 leukemia; 39.8 µM in the assay on SF-268 CNS; greater than 50 µM in the assay on SF-295 CNS; 9.92 µM in the assay on SK-MEL-5 melanoma; greater than 50 µM in the assay with SN12C renal. The TGI with U251 CNS was found to be 21.5 µM.
Regarding `NC(=O)c1ccc(NC(=O)c2oc3ccccc3c2-c2cnn(-c3ccccc3)c2)cc1`, the GI50 is greater than 100 µM with NCI-H460 lung; 1.33 µM with RXF 393 renal; 5.79 µM in the assay on SF-268 CNS; greater than 35.5 µM in the assay with SF-295 CNS; greater than 100 µM in the assay on SF-539 CNS; greater than 100 µM in the assay on SN12C renal. Moreover, the GI50 is 1.89 µM in the assay on SNB-75 CNS and 5.42 µM in the assay on U251 CNS. Further, the TGI in the assay on NCI-H460 lung was greater than 100 µM; in the assay on RXF 393 renal, 6.03 µM; with SF-268 CNS it was greater than 100 µM; in the assay on SF-295 CNS, greater than 100 µM; with SF-539 CNS it was greater than 100 µM; in the assay with SN12C renal, greater than 100 µM. For the same compound, the figures for the TGI in the assay on SNB-75 CNS and with U251 CNS were 8.31 µM and greater than 100 µM, respectively.
In the case of `Cc1ccc(C)c2sc3cc(=O)ccc-3nc12`, the TGI was greater than 100 µM with NCI-H460 lung; greater than 100 µM with SF-268 CNS; greater than 100 µM with SF-295 CNS; greater than 100 µM with SF-539 CNS; 31 µM in the assay with SK-MEL-5 melanoma; greater than 100 µM with SN12C renal. Moreover, the TGI with SNB-75 CNS and in the assay with U251 CNS was greater than 100 µM in each case.
Turning to `Cc1ccc(C)c(NC(=O)CCc2n[nH]c(=S)o2)c1`, the TGI in the assay with NCI-H460 lung, in the assay on RXF 393 renal, in the assay with SF-268 CNS, in the assay on SF-295 CNS, with SF-539 CNS and in the assay on SK-MEL-5 melanoma was greater than 100 µM in each case. Also, the TGI in the assay with SN12C renal, in the assay with SNB-75 CNS and in the assay with U251 CNS was greater than 100 µM each time.
For the compound `COc1cc(SC)ccc1C(=O)N1CCCC(C)C1` (configuration not stated), the GI50 with NCI-H460 lung was greater than 100 µM; in the assay on RPMI-8226 leukemia it was 69.2 µM; with SF-268 CNS it was greater than 100 µM; in the assay with SF-295 CNS it was greater than 100 µM; in the assay on SF-539 CNS, greater than 100 µM; with SK-MEL-5 melanoma, 33.3 µM. Besides, the GI50 in the assay with SN12C renal, with SNB-75 CNS and in the assay on U251 CNS was greater than 100 µM in each case. Also, the TGI in the assay with NCI-H460 lung, with RPMI-8226 leukemia, in the assay on SF-268 CNS, in the assay with SF-295 CNS, in the assay on SF-539 CNS and with SK-MEL-5 melanoma was greater than 100 µM in each case. The TGI in the assay with SN12C renal, in the assay with SNB-75 CNS and with U251 CNS was greater than 100 µM in each case.
For the compound `COc1ccc(/C=C/CO)cc1OC`, the TGI in the assay with RPMI-8226 leukemia, in the assay with RXF 393 renal, in the assay with SF-268 CNS, in the assay on SF-295 CNS, in the assay on SF-539 CNS and in the assay on SK-MEL-5 melanoma was greater than 100 µM each time. The TGI in the assay on SN12C renal, in the assay on SNB-75 CNS and in the assay on U251 CNS was greater than 100 µM each time.
Take `C/C(=N\n1c(N)c(C#N)c(-c2ccc(Cl)cc2)c(C#N)c1=O)c1cccnc1`: the GI50 with NCI-H460 lung, in the assay on RPMI-8226 leukemia, with SF-268 CNS, in the assay with SF-295 CNS, in the assay on SK-MEL-5 melanoma and in the assay with SN12C renal was greater than 100 µM throughout. Further, the GI50 in the assay with SNB-75 CNS was 14.6 µM; in the assay with U251 CNS it was greater than 100 µM. Moreover, the TGI in the assay with NCI-H460 lung, with RPMI-8226 leukemia, in the assay on SF-268 CNS, in the assay with SF-295 CNS, in the assay on SK-MEL-5 melanoma and with SN12C renal was greater than 100 µM each time. The TGI in the assay with SNB-75 CNS was 99.6 µM; with U251 CNS it was greater than 100 µM.
On to `Cc1ccc(NC(=O)NC23CC4CC(CC(F)(C4)C2)C3)cc1`, for which the TGI is greater than 100 µM with NCI-H460 lung; 90.2 µM in the assay with RPMI-8226 leukemia; greater than 100 µM in the assay on RXF 393 renal; greater than 100 µM in the assay on SF-539 CNS; greater than 100 µM in the assay on SK-MEL-5 melanoma; 87.1 µM with SNB-75 CNS. In addition, the TGI with U251 CNS was greater than 100 µM.
